Reference: US7589087B2 (Janssen Pharmaceutica, N.V., priority 2006, dated 2009)

Target: T1, human histamine H4 receptor (Homo sapiens, UniProt Q9H3N8)
T1 construct: expressed in transfected cells; host or cells: SK-N-MC cells or COS7 cells, transiently transfected; membranes prepared
Assay: Binding Assay on Recombinant Human Histamine H4 Receptor (3H-histamine competition, membranes of transfected SK-N-MC or COS7 cells); note: ligand 5 nM
Procedure: SK-N-MC cells or COS7 cells were transiently transfected with pH4R and grown in 150 cm^2 tissue culture dishes. Cells were washed with saline solution, scraped with a cell scraper and collected by centrifugation (1000 rpm, 5 min). Cell membranes were prepared by homogenization of the cell pellet in 20 mM Tris-HCl with a polytron tissue homogenizer for 10 sec at high speed. Homogenate was centrifuged at 1000 rpm for 5 min at 4° C. The supernatant was then collected and centrifuged at 20,000×g for 25 min at 4° C. The final pellet was resuspended in 50 mM Tris-HCl. […] Incubation occurred at room temperature for 45 min. Membranes were harvested by rapid filtration over Whatman GF/C filters and washed 4 times with ice-cold 50 mM Tris HCl. Filters were then dried, mixed with scintillant and counted for radioactivity.

Ki [µM]	Structure (SMILES)
0.66	CN1CCC(CCCC(=O)Nc2cc(-c3nc4cc(Cl)ccc4[nH]3)ccn2)CC1 [Example 36, N-[4-(5-Chloro-1H-benzoimidazol-2-yl)-pyridin-2-yl]-4-(1-methyl-piperidin-4-yl)-butyramide]
3.47	Cc1ccc2[nH]c(-c3ccc(N(CCCC4CCN(C)CC4)C(C)C)nc3)nc2c1C [Example 37, [5-(4,5-Dimethyl-1H-benzoimidazol-2-yl)-pyridin-2-yl]-isopropyl-[3-(1-methyl-piperidin-4-yl)-propyl]-amine]
3.33	Cc1cccc2[nH]c(-c3ccnc(NC(=O)CCCC4CCN(C)CC4)c3)nc12 [Example 38, N-[4-(4-Methyl-1H-benzoimidazol-2-yl)-pyridin-2-yl]-4-(1-methyl-piperidin-4-yl)-butyramide]
